Data reported in patent publication US20240285785A1, “TARGETING SORTILIN” (priority 2022, published 2024).
Where a SMILES comes first, the peptide text is derived from it. [ ]: non-standard residue; d: D form. The star is where a group is joined. Dolaproine = CO[C@@H]([C@@H]1CCCN1)[C@@H](C)C(=O)O; Dil = CC[C@H](C)[C@H](NC)[C@@H](CC(=O)O)OC; X1 = C[C@@H](N*)[C@@H](O)c1ccccc1; NMeV = CN[C@H](C(=O)O)C(C)C

Test system: not listed separately
Experiment: Murine serum stability assay
Type: in vitro ADME, mouse (CD-1)
Settings: male, CD-1, mouse, mouse serum, male CD-1 mouse serum, 37° C.; read-out: Murine serum stability assay, T1/2
Experimental: Serum was drawn from male CD-1 mice by Pharmidex. Lyophilized peptides were solubilized in DMSO and then further diluted into male mouse (CD-1) serum at 37° C. in duplicates. The reaction was incubated at 37° C. and samples extracted at 6 time points: 0, 0.16, 0.5, 1, 3, and 6 hrs. Acetonitrile (ACN) with internal standard (tolbutamide) was added to stop the incubation. Samples were centrifuged, and the supernatant was analyzed by HPLC-MS/MS for the parent compound.

Row | half-life [min] | Compound
1 | 46.1 | CCCC[C@@H]1NC(=O)[C@@H](NC(=O)[C@H](CCC(N)=O)NC(=O)[C@H](C)NC(C)=O)CSSC[C@@H](C(=O)N[C@@H](CCCNC(=N)N)C(=O)N[C@@H](CCC(N)=O)C(=O)N[C@H](C(=O)N[C@@H](CC(C)(C)C)C(=O)O)C(C)(C)C)NC(=O)[C@H](C)NC(=O)[C@H](CCCNC(=N)N)NC(=O)[C@H](CC(N)=O)NC(=O)[C@H](CCCNC(=N)N)NC(=O)CNC1=O [Arb_cyclic_C5]
2 | 13.5 | CCCC[C@H](NC(=O)[C@@H]1CSSC[C@H](NC(=O)[C@H](Cc2c[nH]cn2)NC(=O)[C@H](Cc2ccccc2)NC(=O)[C@H](CC(N)=O)NC(=O)[C@H](CCCNC(=N)N)NC(C)=O)C(=O)N[C@@H](CCCNC(=N)N)C(=O)N[C@@H](C)C(=O)N[C@@H](CCC(N)=O)C(=O)N1)C(=O)N[C@@H](CCCNC(=N)N)C(=O)N[C@@H](CCC(N)=O)C(=O)N[C@H](C(=O)N[C@@H](CC(C)(C)C)C(=O)O)C(C)(C)C [Arb_cyclic_D21]
3 | 50.9 | CCCC[C@@H]1NC(=O)[C@H](CCCNC(=N)N)NC(=O)[C@H](Cc2c[nH]cn2)NC(=O)[C@H]([C@@H](C)O)NC(=O)[C@H]([C@@H](C)O)NC(=O)[C@@H](NC(=O)[C@H](CO)NC(=O)[C@H](CCCNC(=N)N)NC(C)=O)CSSC[C@@H](C(=O)N[C@@H](CCCNC(=N)N)C(=O)N[C@@H](CCC(N)=O)C(=O)N[C@H](C(=O)N[C@@H](CC(C)(C)C)C(=O)O)C(C)(C)C)NC(=O)[C@H]([C@@H](C)O)NC(=O)[C@H](C)NC1=O [Arb_cyclic_G14, RSCTTHR(Nle)ATCRQ(B13)(F02)]
4 | 9.26 | CC[C@H](C)[C@@H]1NC(=O)[C@@H](NC(=O)CNC(=O)[C@H](CCCNC(=N)N)NC(C)=O)CSSC[C@@H](C(=O)N[C@@H](CCCNC(=N)N)C(=O)N[C@@H](CCC(N)=O)C(=O)N[C@H](C(=O)N[C@@H](CC(C)(C)C)C(=O)O)C(C)(C)C)NC(=O)[C@H](C)NC(=O)[C@H](CC(=O)O)NC(=O)[C@H](CCC(N)=O)NC(=O)[C@H](CCCNC(=N)N)NC(=O)[C@H](CCCNC(=N)N)NC(=O)[C@@H]2CCCN2C1=O [Arb_cyclic_G7]
5 | 11.8 | CCCC[C@H](NC(=O)[C@H](CCC(N)=O)NC(=O)[C@H](CCCNC(=N)N)NC(=O)[C@H](CC(C)C)NC(=O)[C@H](C)NC(=O)[C@@H]1CCCN1C(=O)[C@H](CC(=O)O)NC(=O)[C@H](CCCNC(=N)N)NC(=O)[C@H](CC(C)C)NC(=O)[C@@H]1CCCN1C(=O)[C@H](C)NC(=O)[C@H](CC(=O)O)NC(=O)[C@H](Cc1c[nH]c2ccccc12)NC(=O)[C@H](CCCNC(=N)N)NC(=O)[C@@H]1CCCN1C(=O)[C@H](C)N)C(=O)N[C@@H](CC(C)(C)C)C(=O)O [Arb-SAR-P19]
6 | 9.33 | CC(C)C[C@H](NC(=O)[C@H](C)NC(=O)[C@@H]1CCCN1C(=O)[C@H](CC(=O)O)NC(=O)[C@H](CCCNC(=N)N)NC(=O)[C@H](CC(C)C)NC(=O)[C@@H]1CCCN1C(=O)[C@H](C)NC(=O)[C@H](CC(=O)O)NC(=O)[C@H](Cc1c[nH]c2ccccc12)NC(=O)[C@H](CCCNC(=N)N)NC(=O)[C@@H]1CCCN1C(=O)[C@H](C)N)C(=O)N[C@@H](CCCNC(=N)N)C(=O)N[C@@H](CCC(N)=O)C(=O)N[C@@H](CC1CC1)C(=O)N[C@@H](CC(C)(C)C)C(=O)O [Arb-SAR-P21]
7 | 11.4 | CC(C)CC[C@H](NC(=O)[C@H](CCC(N)=O)NC(=O)[C@H](CCCNC(=N)N)NC(=O)[C@H](CC(C)C)NC(=O)[C@H](C)NC(=O)[C@@H]1CCCN1C(=O)[C@H](CC(=O)O)NC(=O)[C@H](CCCNC(=N)N)NC(=O)[C@H](CC(C)C)NC(=O)[C@@H]1CCCN1C(=O)[C@H](C)NC(=O)[C@H](CC(=O)O)NC(=O)[C@H](Cc1c[nH]c2ccccc12)NC(=O)[C@H](CCCNC(=N)N)NC(=O)[C@@H]1CCCN1C(=O)[C@H](C)N)C(=O)N[C@@H](CC1CCC1)C(=O)O [Arb-SAR-Q09]
8 | 9.79 | CC(C)C[C@H](NC(=O)[C@H](C)NC(=O)[C@@H]1CCCN1C(=O)[C@H](CC(=O)O)NC(=O)[C@H](CCCNC(=N)N)NC(=O)[C@H](CC(C)C)NC(=O)[C@@H]1CCCN1C(=O)[C@H](C)NC(=O)[C@H](CC(=O)O)NC(=O)[C@H](Cc1c[nH]c2ccccc12)NC(=O)[C@H](CCCNC(=N)N)NC(=O)[C@@H]1CCCN1C(=O)[C@H](C)N)C(=O)N[C@@H](CCCNC(=N)N)C(=O)N[C@@H](CCC(N)=O)C(=O)N[C@@H](Cc1ccccc1)C(=O)N[C@@H](CC(C)(C)C)C(=O)O [Arb-SAR-P15]
9 | 13.8 | CC(C)CC[C@H](NC(=O)[C@H](CCCNC(=N)N)NC(=O)[C@H](CC(C)C)NC(=O)[C@H](C)NC(=O)[C@@H]1CCCN1C(=O)[C@H](CC(=O)O)NC(=O)[C@H](CCCNC(=N)N)NC(=O)[C@H](CC(C)C)NC(=O)[C@@H]1CCCN1C(=O)[C@H](C)NC(=O)[C@H](CC(=O)O)NC(=O)[C@H](Cc1c[nH]c2ccccc12)NC(=O)[C@H](CCCNC(=N)N)NC(=O)[C@@H]1CCCN1C(=O)[C@H](C)N)C(=O)N[C@@H](CC(C)C)C(=O)N[C@@H](CC(C)C)C(=O)O [Arb-SAR-K01]
10 | 173 | CC(=O)N[C@@H](CCC(=O)O)C(=O)N[C@@H](Cc1c[nH]c2ccccc12)C(=O)N[C@H]1CSSC[C@@H](C(=O)N[C@@H](CCCNC(=N)N)C(=O)N[C@@H](CCC(N)=O)C(=O)N[C@H](C(=O)N[C@@H](CC(C)(C)C)C(=O)O)C(C)(C)C)NC(=O)[C@H]([C@@H](C)O)NC(=O)[C@@H]2CCCN2C(=O)[C@H](Cc2c[nH]cn2)NC(=O)[C@H](CC(N)=O)NC(=O)[C@H](Cc2c[nH]cn2)NC(=O)[C@H](CC(C)C)NC(=O)CNC1=O [Arb_cyclic_F3]
11 | 14.1 | CC(C)C[C@H](NC(=O)[C@H](C)NC(=O)[C@@H]1CCCN1C(=O)[C@H](CC(=O)O)NC(=O)[C@H](CCCNC(=N)N)NC(=O)[C@H](CC(C)C)NC(=O)[C@@H]1CCCN1C(=O)[C@H](C)NC(=O)[C@H](CC(=O)O)NC(=O)[C@H](Cc1c[nH]c2ccccc12)NC(=O)[C@H](CCCNC(=N)N)NC(=O)[C@@H]1CCCN1C(=O)[C@H](C)N)C(=O)N[C@@H](CCCNC(=N)N)C(=O)N[C@@H](CCC(N)=O)C(=O)N[C@@H](CC1CC1)C(=O)N[C@@H](CC1CCC1)C(=O)O [Arb-SAR-Q13]
12 | 12.7 | CC(C)C[C@H](NC(=O)[C@H](C)NC(=O)[C@@H]1CCCN1C(=O)[C@H](CC(=O)O)NC(=O)[C@H](CCCNC(=N)N)NC(=O)[C@H](CC(C)C)NC(=O)[C@@H]1CCCN1C(=O)[C@H](C)NC(=O)[C@H](CC(=O)O)NC(=O)[C@H](Cc1c[nH]c2ccccc12)NC(=O)[C@H](CCCNC(=N)N)NC(=O)[C@@H]1CCCN1C(=O)[C@H](C)N)C(=O)N[C@@H](CCCNC(=N)N)C(=O)N[C@@H](CCC(N)=O)C(=O)N[C@H](C(=O)N[C@@H](CC(C)(C)C)C(=O)O)C(C)(C)C [Arb-SAR-P23]

Same assay, conditions: male, CD-1, mouse, serum, 37° C., read-out: Murine serum stability assay, T1/2

Row | half-life [min] | Compound
13 | 7.91 | CC(C)C[C@H](NC(=O)[C@H](CC(C)C)NC(=O)[C@H](CCC(N)=O)NC(=O)[C@H](CCCNC(=N)N)NC(=O)[C@H](CC(C)C)NC(=O)[C@H](C)NC(=O)[C@@H]1CCCN1C(=O)[C@H](Cc1ccccc1)NC(=O)[C@H](CCCNC(=N)N)NC(=O)[C@H](CC(C)C)NC(=O)[C@@H]1CCCN1C(=O)[C@H](C)NC(=O)[C@H](CC(=O)O)NC(=O)[C@H](Cc1c[nH]c2ccccc12)NC(=O)[C@H](CCCNC(=N)N)NC(=O)[C@@H]1CCCN1C(=O)[C@H](C)N)C(=O)O [Arb-SAR-C14]
14 | 80.7 | CCCC[C@@H]1NC(=O)[C@H](CCCCN)NC(=O)[C@H](CCCNC(=N)N)NC(=O)[C@@H](NC(=O)[C@H](Cc2ccccc2)NC(=O)[C@@H](NC(=O)[C@H](CC(N)=O)NC(=O)[C@H](CCCNC(=N)N)NC(C)=O)[C@@H](C)CC)CSSC[C@@H](C(=O)N[C@@H](CCC(=O)O)C(=O)N[C@@H](CCCNC(=N)N)C(=O)N[C@@H](CCC(N)=O)C(=O)N[C@H](C(=O)N[C@@H](CC(C)(C)C)C(=O)O)C(C)(C)C)NC1=O [Arb_cyclic_D24, RNIFCRK(Nle)CERQ(B13)(F02)]

Test system: MDA-MB-231 tumor cells
Experiment: MDA-MB-231 murine xenograft efficacy model
Type: in vivo, BALB/c Nude mice
Settings: Example 6; PDC 3, 1, 0.3 mg/kg; free MMAE at equivalency to 3 mg/kg PDC
Experimental: Murine xenograft experiments were conducted at WuXi AppTec and/or Charles River Laboratories and the care and use of animals was conducted in accordance with the regulations of the Association for Assessment and Accreditation of Laboratory Animal Care (AAALAC). MDA-MB-231 tumor cells (ATCC, Manassas, VA, cat #HTB-26) were grown and maintained in L15 medium supplemented with 10% heat inactivated fetal bovine serum, 1% Antibiotic-Antimycotic, and L-glutamine (2 mM) at 37° C. in an atmosphere in 5% CO2, 95% air. BALB/c Nude, female, 6-8 weeks, weighing approximately 18-22 g were purchased from Vital River Laboratory Animal Technology Co., LTD. Mice were inoculated subcutaneously at the right flank with MDA-MB-231 tumor cells (e.g., triple negative breast cancer cells) (10×10^6) in 0.2 mL of PBS with Matrigel (1:1) for tumor development. Animals were randomized and treatment was started when the average tumor volume reached approximately 150-200 mm^3 for the efficacy study. Dosing volume was adjusted based on body weight and was administered at 10 ml/Kg. […] Free MMAE payload was also tested, and similarly dissolved in 25 mM Histidine 10% sucrose pH 7 and one or more of the following doses, 0.6, 0.06 mg/kg, were administered to the mice i.v. at a QW×4 schedule. Tumor sizes were measured twice weekly in two dimensions using a caliper, and the volume in mm^3 calculated using the formula: V=0.5 a×b^2, where a and b are the long and short diameters of the tumor, respectively. TGI was calculated for each group using the formula: TGI (%)=[1−(Ti−T0)/(Vi−V0)]×100; where Ti is the average tumor volume of a treatment group on a given day, T0 is the average tumor volume of the treatment group on the first day of treatment, Vi is the average tumor volume of the vehicle control group on the same day with Ti, and V0 is the average tumor volume of the vehicle group on the first day of treatment.

Row | Compound | body weight variation
15 | CC[C@H](C)[C@@H]([C@@H](CC(=O)N1CCC[C@H]1[C@H](OC)[C@@H](C)C(=O)N[C@H](C)[C@@H](O)c1ccccc1)OC)N(C)C(=O)[C@@H](NC(=O)[C@@H](NC)C(C)C)C(C)C [MMAE, Monomethyl auristatin E, reference compound] (H-[NMeV]V[Dil][Dolaproine]-X1) | body weight fluctuations corresponding to treatment times

Same assay, conditions: Example 8; PDC 3 mg/kg, free MMAE 0.6 mg/kg, i.v. QW×4

Row | Compound | body weight loss
16 | CC[C@H](C)[C@@H]([C@@H](CC(=O)N1CCC[C@H]1[C@H](OC)[C@@H](C)C(=O)N[C@H](C)[C@@H](O)c1ccccc1)OC)N(C)C(=O)[C@@H](NC(=O)[C@@H](NC)C(C)C)C(C)C [MMAE, Monomethyl auristatin E, reference compound] (H-[NMeV]V[Dil][Dolaproine]-X1) | body weight fluctuations corresponding to treatment times
